Assay results from patent US20180235210A1, “ANTISENSE COMPOSITIONS TARGETING ERWINIA SPECIES AND METHODS OF USING THE SAME” (priority 2017, published 2018).

Legend:
acpP mRNA = assay: Northern blot detection of acpP expression in treated cells; type: cell-based, Erwinia amylovora; conditions: streptomycin 1 μM and 3 μM, 15.5 hrs post inoculation
Protocol: E. amylovora Ea110 was inoculated into LB broth at the final concentration of 5×10^5 CFU/ml, and was treated with various concentrations of PNA-CPP, water, or streptomycin. The inoculated cells were incubated at 28° C. with orbital shaking, and were collected for RNA isolation at 15.5 hrs post inoculation. Total bacterial RNA was isolated using the RNeasy Protect Bacteria Mini Kit (Qiagen, Valencia, Calif., USA) following the manufacturer's instructions. The quality and quantity of RNA was measured with a Nanodrop 2000c (Thermo Scientific, Wilmington, Del., USA).
The probe for acpP detection in Northern blots was synthesized from polymerase chain reaction (PCR) using acpP primers (forward primer 5′-TGGGCGTTAAGCAGGAAGAAG-3′ (SEQ ID NO: 5) and reverse primer 5′-TACGCCTGGTGACCATTGAT (SEQ ID NO: 6)). The PCR product was purified using a QIAquick PCR Purification kit (Qiagen) and labelled using a Biotin DecaLabel DNA Labeling Kit (Thermo Fisher Scientific, Grand Island, N.Y.) as per instruction of kit manual. Thirty micrograms of RNA was loaded for each sample and was separated on a formaldehyde denaturing gel in MOPS buffer. BrightStar®-Plus positively-charged nylon membranes (Thermo Fisher Scientific) were used for transfer of RNA from gel to membrane. […] The biotin signal was detected using a Biotin Chromogenic Detection Kit (Thermo Fisher Scientific).

[1] = system: apple flower-associated bacteria; assay: Susceptibility of apple flower-associated bacteria and biocontrol strains (panel); type: cell-based; conditions: streptomycin 20 μM
Protocol: Fifty flowers were collected from apple trees Malus×domestica ‘McIntosh’ from the Hamden, Conn. Lockwood farm in May 2016. The stigmas from all 50 flowers were removed, placed into 3 ml of 0.5×PBS, vortexed for 20 seconds, and sonicated for 5 min in a water bath sonicator to release the stigma associated bacteria. PBS buffer containing bacteria cells was serially diluted (10×, 100× and 1000×) and plated on LB agar medium and incubated at 28° C. for 48 h. On the basis of morphological colony characteristics, 200 bacterial colonies were shortlisted, sub-cultured, and identified using 16s rDNA sequencing using the forward primer 63f (5′-CAGGCCTAACACATGCAAGTC-3′) (SEQ ID NO: 10) and reverse primer 1387r (5′-GGG CGG WGT GTA CAA GGC-3′) (SEQ ID NO: 11). Fifteen different species were selected from the 200 bacterial cultures for testing against anti-acpP-CPP1 and streptomycin. Biological control agents Pseudomonas fluorescence A506, Bacillus amyloliquefaciens D747 and Pantoea agglomerans E325 were isolated from the original products on LB agar plate.
Compared to the traditional antibiotics that kill microbes with little selection, antisense antimicrobials inhibit bacterial growth through a sequence specific manner. […] Two hundred bacterial colonies were subcultured, and the identities of these colonies were determined by 16S rDNA sequencing. […]

Erwinia amylovora Ea110 = assay: Measurement of bacterial growth inhibition / MIC in LB broth; type: cell-based
Protocol: The highly-virulent strain E. amylovora Ea110, which was isolated from an apple orchard in Michigan (Zhao et al., 2005), was used in this study. Bacterial strains were stored at −80° C. in 15% glycerol and cultured in Luria-Bertani (LB) medium at 28° C. PNA-CPP was synthesized using Bts oligomerization method by Panagene Inc (Daejeon, Korea). Streptomycin and PNA-CPP were implemented at rates indicated in each assay.
Erwinia amylovora Ea110 was cultured in LB broth overnight and then cell concentrations were adjusted to 5×10^5 CFU/ml in LB broth. A total of 80 μl of the bacterial suspension in LB was added into each well of a 96 well plate. Lyophilized PNA-CPP was resuspended in water to a stock concentration of 100 μM and was serial diluted. Twenty μl of the diluted PNA-CPP solution was added into each well that contained 80 μl of the bacterial suspension in LB to make the final concentrations indicated in each assay. Water and streptomycin were added to the wells as negative and positive controls. The plate was incubated at 28° C. with orbital shaking in a BioTek Synergy H1 microplate reader (BioTek, Winooski, Vt., USA) for 20 hr. During the incubation, the OD 600 of each well was measured every 10 min. The lowest concentration of a PNA-CPP that prevented growth after 20 hr represented the MIC. Three replicates were included in each testing, and the experiment was repeated twice.

Compound: [H]/N=C(/N)N[C@H]1[C@H](O)[C@@H](O)[C@H](O[C@@H]2O[C@@H](C)[C@](O)(C=O)[C@H]2O[C@@H]2O[C@@H](CO)[C@H](O)[C@@H](O)[C@@H]2NC)[C@@H](N/C(N)=N\[H])[C@@H]1O [streptomycin]
- acpP mRNA abundance (acpP mRNA): did not affect
- susceptibility of strains tested [1]: All strains tested are susceptible to streptomycin with the exception of P. fluorescens A506
- MIC (Erwinia amylovora Ea110; Erwinia amylovora, E. amylovora Ea110, LB broth, 28° C., 20 hr, read-out: minimal inhibitory concentration (MIC)): 2 µM

Compound: anti-acpP PNA: 10-nucleotide PNA oligomer 5′-ctcatactat-3′ (SEQ ID NO: 1), antisense to start codon region of acpP, no CPP (CTCATACTAT; all peptide nucleic acid (PNA))
- growth inhibition of E. amylovora (Erwinia amylovora Ea110; LB broth, any concentration tested, compared to water): did not display any growth inhibition
